Assay results: patent publication US10808008B2, “Aromatic-cationic peptides and uses of same” (Cornell University, priority 2012, dated 2020)

Legend:
[1] = Fluorescence spectroscopy of labelled peptide with other phospholipids; type: binding; conditions: POPA, DPPG, POPS, cardiolipin
Experimental: 1-palmitoyl-2-oleoyl-sn-glycero-3-phosphocholine (POPC), 1-palmitoyl-2-oleoyl-sn-glycero-3-phosphate (POPA), 1-palmitoyl-2-oleoyl-sn-glycero-3-phospho-L-serine (POPS), 1-palmitoyl-2-oleoyl-sn-glycero-3-phosphoethanolamine (PE), and 1,2-dipalmitoyl-sn-glycero-3-phospho-(1′-rac-glycerol) (DPPG) were obtained from Avanti Polar Lipids Inc (Alabaster, Ala.).
Changes in the emission intensity of the [atn]SS-02 and the [ald]SS-02 were measured using a Hitachi F-4500 fluorescence spectrophotometer. The different solvents used to dissolve the various phospholipids (chloroform, methanol and ethanol) had negligible effect on the fluorescence spectrum of [atn]SS-02 and [ald]SS-02. All experiments were done in low ionic solution (deionized water) to optimize electrostatic interactions of peptides with phospholipids.

[2] = molecular target: cytochrome c/cardiolipin complex (Equus caballus, UniProt P00004); experiment: Soret circular dichroism of cytochrome c with cardiolipin; type: biochemical; conditions: 10 μM cytochrome c, 30 μg/ml cardiolipin, peptide 1:1 with cytochrome c; pH 7.4
Experimental: Circular dichroism (CD) was carried out to examine the effects of the peptides on protecting the heme environment of cytochrome c from the acyl chain of CL. For heme proteins, the Soret CD spectrum is strictly correlated with the heme pocket conformation. In particular, the negative 416-420 nm Cotton effect is considered diagnostic of Fe(III)-Met80 coordination in native cytochrome c (Santucci and Ascoli, 1997). […] CD spectra were obtained using AVIV CD Spectrometer Model 410.
Changes in the Soret CD spectrum of cytochrome c (10 μM) were recorded in the absence (dotted line) and presence (dashed line) of 30 μg/ml CL, plus addition of different peptides (10 μM) (solid line) (FIG. 14). CD measurements were carried out using 20 mM HEPES, pH 7.5, at 25° C. and expressed as molar ellipticity (A) (m Deg). […] Accordingly, aromatic-cationic peptides of the present disclosure are useful for the prevention or treatment of diseases or disorders characterized by dysregulation of cardiolipin and/or cytochrome c, and/or diseases or disorders characterized by dysregulation of the cardiolipin/cytochrome c interaction. In addition, aromatic-cationic peptides of the present disclosure are useful to protect the heme environment of cytochrome c from the acyl chain of cardiolipin.
Circular Dichroism (CD) spectra were collected with an AVIA 62 DS spectrophotometer equipped with a sample temperature controller. CD spectra of the Soret region (370-450 nm) were recorded with 10-mm path length cells containing 20 mM Hepes, pH 7.4, and 10 μM cytochrome c, in the presence or absence of 30 μg/ml cardiolipin and different SS peptide analogs (SS-02, [atn]SS-02, [ald]SS-02, and SS-31). The maximum lipid concentration was kept low to avoid spectral distortions due to excessive light scattering. All measurements were done at 25° C. All spectra were corrected for background, and the final spectrum shown represents the average of at least three experiments.

[3] = molecular target: cardiolipin-cytochrome c complex (Equus caballus, UniProt P00004); experiment: Cytochrome c reduction in the presence of cardiolipin; type: biochemical; conditions: 40 μM peptide; 20 μM cytochrome c, 100 μg/ml cardiolipin, 50 μM ascorbate; 10% with cardiolipin alone
Experimental: Reduction of cytochrome c (20 μM) was induced by the addition of glutathione (500 μM) in the absence or presence of CL (100 μg/ml) (FIG. 15A). Reduction of cytochrome c was monitored by absorbance at 550 nm using a 96-well UV-VIS plate reader (Molecular Devices). Addition of CL decreased the rate of cytochrome c reduction by half.
The time course of cytochrome c reduction by ascorbate was recorded at 550 nm and 570 nm using a 96-well plate reader (Molecular Devices, Sunnyvale, Calif.). For all reactions, cytochrome c was preincubated with cardiolipin in the presence or absence of SS peptides for 1 min. […] Ascorbate (50 μM) was added to initiate the reduction of cytochrome c, and the absorbance was recorded for 5 min. The rate of reduction was calculated based on slope of the change in absorbance intensity of 550 nm over 570 nm.

cytochrome c/CL complex = cytochrome c/CL complex (Equus caballus, UniProt P00004); experiment: Peroxidase activity of cytochrome c/cardiolipin complex (Amplex Red); type: biochemical; conditions: 10 μM peptide; 2 μM cytochrome c; cardiolipin 100 μg/ml
From the text: The six coordination of the heme in cytochrome c prevents direct interaction of H2O2 with the catalytic metal site, and native cytochrome c in solution is a poor peroxidase. Upon interaction with CL, cytochrome c undergoes a structural change with rupture of the Fe-Met80 coordination. […] The mechanism of action of cytochrome c peroxidase is similar to that of other peroxidases, such as horse radish peroxidase (HRP). Thus it is possible to use the amplex red-HRP reaction to investigate cytochrome c peroxidase activity. In the presence of peroxidase, amplex red (AR) reacts with H2O2 to form the red-fluorescent oxidation product, resorufin (Ex/Em=571/585).
Cytochrome c (2 μM) was mixed with CL (25 μg/ml) and 10 μM H2O2 in 20 mM HEPES, pH 7.4. Amplex red (50 μM) was then added and fluorescence emission monitored in real time using Hitachi F4500 fluorescence spectrophotometer. Addition of amplex red elicited rapid increase in fluorescence signal due to resorufin formation, providing direct evidence for peroxidase activity of cytochrome c/CL complex (FIG. 19A).
Assessment of cytochrome c peroxidase activity was achieved using the Amplex® Red assay (Invitrogen/Life Technologies, Carlsbad, Calif.). Amplex® Red is a reagent that reacts with H2O2 in a 1:1 stoichiometry to produce highly fluorescent resorufin (λex/λem=570/585) in the presence of a peroxidase. In this assay, cytochrome c is added in place of horseradish peroxidase. 2 μM cytochrome c was incubated with cardiolipin or cardiolipin-POPC liposomes (10 μg/ml) for 1 min in 20 mM HEPES (pH 7.4) or deionized water prior to the addition of 50 μM Amplex® Red reagent and 10 μM H2O2, and the reaction was allowed to proceed for an additional 5 minutes. The continuous time course data were obtained using Hitachi F-4500 fluorescence spectrophotometer. When comparing the different SS peptide analogs (10 μM) in inhibiting peroxidase activity cytochrome c (2 μM) in the presence of cardiolipin (100 μg/ml), a microplate spectrofluorometer (Molecular Devices, Sunnyvale, Calif.) was used. Horseradish peroxidase (HRP) was used for comparison, and the HRP concentration (0.001 U/ml) was optimized to match the rate of Amplex® Red peroxidation by cardiolipin-cytochrome c complex.

[4] = molecular target: cytochrome c and cardiolipin (Equus caballus, UniProt P00004); experiment: Oxidation of ferrous cytochrome c by cardiolipin (A550); type: biochemical; conditions: 20 μM cytochrome c reduced by 50 μM ascorbic acid; 100 μg/ml cardiolipin
Experimental: Cytochrome c (20 μM) was reduced by 50 μM ascorbic acid until all available functionally active cytochrome c was reduced. The reduction of cytochrome c was monitored by the appearance of a peak at 550 nm in its absorbance spectrum (Molecular Devices, Sunnyvale, Calif.). […] The rate of oxidation was calculated based on slope of the change in absorbance intensity of 550 nm over 570 nm.

cytochrome c [5] = molecular target: T1, cytochrome c (Equus caballus, UniProt P00004); experiment: Fluorescence quenching of labelled peptides by cytochrome c; type: binding, horse; set-up: from tissue; host or cells: horse heart; conditions: Example 22; additions of cytochrome c (2 μM)
Experimental: Maximal fluorescence emission of SS-19 was monitored at 420 nm following excitation at 320 nm using Hitachi F-4500 fluorescence spectrophotometer.
The quenching by cytochrome c was not displaced by sequential additions of bovine serum albumin (FIG. 12C, A+arrows) (500 μg/ml). […] Accordingly, aromatic-cationic peptides of the present disclosure are useful for the prevention or treatment of diseases or disorders characterized by dysregulation of cytochrome c.
Fluorescence emission of SS-19 (10 μM) was monitored in real time (Ex/Em=320 nm/420 nm) using Hitachi F-4500 fluorescence spectrophotometer.
Interaction of SS peptides with horse heart cytochrome c in the absence or presence of free cardiolipin or cardiolipin/POPC (1:1) liposomes (prepared as described in Example 22) was examined by fluorescence quenching of [atn]SS-02 (λex/λem=320/420 nm) and [ald]SS-02 (λex/λem=360/510 nm) upon addition of cytochrome c (using a Hitachi F-4500 fluorescence spectrophotometer). The solvents used to dissolve cardiolipin and POPC had negligible effect on cytochrome c-dependent quenching of these peptides. All experiments were done in low ionic solution (deionized water) or 20 mM Hepes pH 7.4.

cytochrome c [6] = molecular target: T1, cytochrome c; experiment: as above; type: binding, horse; set-up: from tissue; host or cells: horse heart; conditions: additions of 75 μg/ml BSA

T1 sequence (P00004 2-105 limits assumed): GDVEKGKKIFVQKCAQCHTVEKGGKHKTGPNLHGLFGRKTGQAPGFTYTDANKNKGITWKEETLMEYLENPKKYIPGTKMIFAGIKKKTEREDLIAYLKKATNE
Chain of cytochrome c and cardiolipin (P00004 2-105 limits assumed): as above
Chain of cytochrome c/CL complex (P00004 2-105 limits assumed, one chain of several): as the sequence (P00004 2-105 limits assumed) above
Chain of cardiolipin-cytochrome c complex (P00004 2-105 limits assumed, one chain of several): as the sequence (P00004 2-105 limits assumed) above
Chain of cytochrome c/cardiolipin complex (P00004 2-105 limits assumed, one chain of several): as the sequence (P00004 2-105 limits assumed) above

Substance | specificity of peptide-phospholipid interaction [1] | loss of the negative Cotton peak at 419 nm caused by cardiolipin [2] | rate of cytochrome c reduction in the presence of cardiolipin [3] | peroxidation rate of cytochrome c (cytochrome c/CL complex) | oxidation of cytochrome c by cardiolipin (loss of the 550 nm peak) [4] | quenching of fluorescence by cytochrome c (cytochrome c [5]) | reversal of cytochrome c quenching by BSA (cytochrome c [6])
2′,6′-Dmt-D-Arg-Phe-Lys-NH2 [SS-02] | specific for phospholipids with anionic headgroups | prevented | about 60% | about 70 % of control | inhibition of cytochrome c oxidation |  | 
tetramethylrhodamine methyl ester [TMRM, reference compound] |  |  |  |  |  | slightly quenched | completely reversed quenching
